Reference: patent US11345702B1 (Myoforte Therapeutics, Inc., priority 2020, dated 2022)

Biological target: 15-PGDH/HPGD (Homo sapiens (Human), UniProt P15428)
Test: hPGDH inhibitor screening biochemical assay
Settings: read-out: hPGDH: Average IC50
Method: A hydroxyprostaglandin dehydrogenase inhibition screening biochemical assay can be performed to assess the synthesized inhibitors provided herein. Provided herein is an exemplary biochemical assay for hPGDH inhibitor screening.
The in vitro biochemical assay can be performed in white, 384 plates in total 20 μl reaction volume consisting of 10 nM of 15-PGDH/HPGD (R&D System #5660-DH), 15 μM Prostaglandin E2 (Sigma, Cat #P5640-10MG) and 0.25 mM (3-Nicotinamide adenine dinucleotide sodium salt (Sigma, Cat #N0632-5G) made in reaction buffer (50 mM Tris-HCl, pH 7.5, 0.01% Tween 20) at 10-point dose response curve for test/tool compounds. Briefly, 5 μl (4×) of compounds solution and 5 μl (final concentration, 10 nM) of enzyme solution is added to white 384 well plates and incubated for 10 mins at 37° C. 5 μl (4×) of Prostaglandin E2 and 5 μl (4×) of β-Nicotinamide adenine dinucleotide sodium salt is added to the wells and incubated for 10 mins at room temperature. Fluorescence is recorded at ex/em=340 nm/485 nm. The percentage (%) inhibition of enzyme activity was determined relative to positive control (1% DMSO) and IC50 was calculated using GraphPad prism software (four parameter-variable slope equation).

Chain of 15-PGDH/HPGD (P15428 whole entry): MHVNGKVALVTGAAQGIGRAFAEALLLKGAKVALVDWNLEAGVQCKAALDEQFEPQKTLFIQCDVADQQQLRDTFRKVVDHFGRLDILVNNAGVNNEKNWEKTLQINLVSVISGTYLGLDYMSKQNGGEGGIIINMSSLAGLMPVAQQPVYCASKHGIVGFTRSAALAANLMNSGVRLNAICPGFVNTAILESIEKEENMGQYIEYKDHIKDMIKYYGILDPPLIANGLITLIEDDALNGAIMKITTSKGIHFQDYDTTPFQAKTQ

| IC50 | Structure (SMILES) |
| --- | --- |
| < 100 nM | Cc1cc(-n2ccc3cc(C(=O)N4CCCCC4)cnc32)cnc1N [MF-DH-392] |
| < 100 nM | COc1ccc(-n2cnc3cc(C(=O)N4CCC(F)CC4)ccc32)cc1 [MF-PGDH-009] |
| < 100 nM | COc1ccccc1C(=O)Nc1ccc(C(=O)N2CCCCC2)cc1 [MF-PGDH-041] |
| ≥ 1000 nM | CN(C(=O)c1ccc2c(c1)ncn2-c1cccc(Cl)c1)C1CC1 [MF-PGDH-064, 1-(3-chlorophenyl)-N-cyclopropyl-N-methyl-1H-benzo[d]imidazole-5-carboxamide] |
| 100 to 1000 nM | CCc1nc2cc(C(=O)N3CCC(F)CC3)cnc2n1-c1ccc(OC)cc1 [MF-DH-184] |
| 100 to 1000 nM | COc1ccc(Cn2cc(-n3ccc4cc(C(=O)N5CCCCC5)cnc43)cn2)cc1 [MF-DH-129] |
| 100 to 1000 nM | O=C(c1cnc2c(c1)ncn2-c1ccc(O)cc1)N1CCC(F)CC1 [MF-DH-238] |
| < 100 nM | NC(=O)c1ncc(-n2ccc3cc(C(=O)N4CCCCC4)cnc32)cn1 [MF-DH-384] |
| < 100 nM | O=C(c1cnc2c(ccn2-c2ccc(-c3noc(=O)[nH]3)nc2)c1)N1CCC(F)(F)CC1 [MF-DH-456, 3-(5-(5-(4,4-difluoropiperidine-1-carbonyl)-1H-pyrrolo[2,3-b]pyridin-1-yl)pyridin-2-yl)-1,2,4-oxadiazol-5(4H)-one] |
| < 100 nM | O=C(c1cnc2c(ccn2-c2cncnc2)c1)N1CCCCC1 [MF-PGDH-070] |
| < 100 nM | COc1ccc(-n2ccc3cc(C(=O)N4CCC(F)CC4)cnc32)cc1 [MF-DH-285] |
| < 100 nM | O=C(NC1(C(=O)O)CC1)c1ccc(-n2ccc3cc(C(=O)N4CCC(F)(F)CC4)cnc32)cn1 [MF-DH-430, 1-(5-(5-(4,4-difluoropiperidine-1-carbonyl)-1H-pyrrolo[2,3-b]pyridin-1-yl)picolinamido)cyclopropane-1-carboxylic acid] |
| < 100 nM | O=C(c1ccc2c(c1)ncn2-c1cccc(Cl)c1)N1CCC(F)(F)CC1 [MF-PGDH-026] |
| 100 to 1000 nM | O=C(NC1CC1)c1ccc2c(c1)ncn2-c1cccc(Cl)c1 [MF-PGDH-063] |
| < 100 nM | O=C(c1ccc2c(c1)ncn2-c1cccc(Cl)c1)N1CCCCCC1 [MF-PGDH-016] |
| ≥ 1000 nM | COc1ccc(-n2c(NC(C)=O)nc3cc(C(=O)N4CCC(F)CC4)cnc32)cc1 [MF-DH-116] |
| ≥ 1000 nM | CS(=O)(=O)n1ccc2cc(C(=O)N3CCCCC3)cnc21 [MF-DH-311, (1-(methylsulfonyl)-1H-pyrrolo[2,3-b]pyridin-5-yl)(piperidin-1-yl)methanone] |
| < 100 nM | Cn1cc(-n2ccc3cc(C(=O)N4CCC(F)CC4)cnc32)cn1 [MF-DH-139] |
| < 100 nM | CS(=O)(=O)c1cccc(-n2ccc3cc(C(=O)N4CCCCC4)cnc32)c1 [MF-DH-309] |
| 100 to 1000 nM | O=C(c1ccc2c(c1)ncn2-c1cccc(Cl)c1)N1CCCC1 [MF-PGDH-046] |
| < 100 nM | O=C(c1ccc(COc2ccccc2-c2cnc[nH]2)cc1)N1CCCCC1 [MF-PGDH-096] |
| < 100 nM | Nc1cc(-n2ccc3cc(C(=O)N4CCCCC4)cnc32)ccn1 [MF-DH-317] |

| IC50 | Structure (SMILES) |
| --- | --- |
| < 100 nM | NS(=O)(=O)c1ccc(-n2ccc3cc(C(=O)N4CCC(F)(F)CC4)cnc32)cc1 [MF-DH-496] |
| < 100 nM | COc1ccc(-n2cnc3cc(C(=O)N4CCC(F)CC4)ccc32)nc1 [MF-DH-141] |
| ≥ 1000 nM | COc1ccccc1C(=O)N(C)c1ccc(C(=O)N2CCCCC2)cc1 [MF-PGDH-042] |
| < 100 nM | O=C(c1cnc2c(ccn2-c2cccnc2)c1)N1CCCCC1 [MF-PGDH-068] |
| < 100 nM | COc1ccc(-n2cnc3cc(C(=O)N4CCCCC4)ccc32)cc1 [MF-PGDH-008] |
| 100 to 1000 nM | O=C(c1ccc2c(c1)ncn2-c1cccc(Cl)c1)N1CC2CC2C1 (stereo not drawn) [MF-PGDH-017] |
| < 100 nM | NC(=O)[C@@H]1CCCN1C(=O)c1ccc(-n2ccc3cc(C(=O)N4CCC(F)(F)CC4)cnc32)cc1 [MF-DH-450, (S)-1-(4-(5-(4,4-difluoropiperidine-1-carbonyl)-1H-pyrrolo[2,3-b]pyridin-1-yl)benzoyl)pyrrolidine-2-carboxamide] |
| 100 to 1000 nM | Cc1cn(-c2cnccn2)c2ccc(C(=O)N3CCC(F)CC3)cc12 [MF-DH-180, (4-fluoropiperidin-1-yl)(3-methyl-1-(pyrazin-2-yl)-1H-indol-5-yl)methanone] |
| ≥ 1000 nM | COc1ccc(-n2ccc3cc(C(=O)N4CC(c5ccccc5)C4)cnc32)cc1 [MF-DH-326] |
| < 100 nM | O=C(c1ccc2c(c1)ncn2-c1cccc(Cl)c1)N1CCCCC1 [MF-PGDH-023] |
| < 100 nM | CNC(=O)c1ccc(-n2ccc3cc(C(=O)N4CCCCC4)cnc32)cc1 [MF-DH-368] |
| 100 to 1000 nM | COc1ccc(-n2ccc3cc(C(=O)N4CCC(C(F)(F)F)CC4)cnc32)cc1 [MF-DH-324] |
| < 100 nM | CNC(=O)c1cncc(-n2ccc3cc(C(=O)N4CCCCC4)cnc32)c1 [MF-DH-362] |
| ≥ 1000 nM | COc1ccc(-n2c(CCNC(C)=O)nc3cc(C(=O)N4CCC(F)CC4)cnc32)cc1 [MF-DH-117] |
| 100 to 1000 nM | O=C(O)[C@@H]1CCCN1C(=O)c1cccc(-n2ccc3cc(C(=O)N4CCC(F)(F)CC4)cnc32)c1 [MF-DH-489, (3-(5-(4,4-difluoropiperidine-1-carbonyl)-1H-pyrrolo[2,3-b]pyridin-1-yl)benzoyl)-L-proline] |
| 100 to 1000 nM | COc1ccccc1NC(=O)c1ccc(C(=O)N2CCCCC2)cc1 [MF-PGDH-043, N-(2-methoxyphenyl)-4-(piperidine-1-carbonyl) benzamide] |
| < 100 nM | O=C(c1cnc2c(ccn2-c2cnccn2)c1)N1CCCCC1 [MF-PGDH-071] |
| < 100 nM | CC(C)(O)c1ccc(-n2ccc3cc(C(=O)N4CCCCC4)cnc32)cc1 [MF-DH-371] |
| < 100 nM | O=C(c1cnc2c(ccn2-c2cccc(C(=O)N3CCS(=O)(=O)C3)c2)c1)N1CCC(F)(F)CC1 [MF-DH-497, (4,4-difluoropiperidin-1-yl)(1-(3-(1,1-dioxidothiazolidine-3-carbonyl)phenyl)-1H-pyrrolo[2,3-b]pyridin-5-yl)methanone] |
| < 100 nM | O=C(c1cnc2c(c1)c(Cl)cn2-c1ccc2c(c1)OC(F)(F)O2)N1CCC(F)CC1 [MF-DH-250] |
| < 100 nM | CN(C)C(=O)c1ccc(-n2ccc3cc(C(=O)N4CCCCC4)cnc32)cc1 [MF-DH-369] |
| 100 to 1000 nM | O=C(c1ccc2c(c1)ncn2-c1cccc(Cl)c1)N1CCC1 [MF-PGDH-104] |

| IC50 | Structure (SMILES) |
| --- | --- |
| < 100 nM | O=C(O)[C@@H]1CCCN1C(=O)c1ccc(-n2ccc3cc(C(=O)N4CCC(F)(F)CC4)cnc32)cc1 [MF-DH-432] |
| < 100 nM | COc1ccc(-n2ccc3cc(C(=O)N4CCCCC4)cnc32)cn1 [MF-DH-323] |
| 100 to 1000 nM | COc1ccc(Cn2cnc(-n3ccc4cc(C(=O)N5CCCCC5)cnc43)c2)cc1 [MF-DH-128] |
| < 100 nM | CCOc1ccc(-n2ccc3cc(C(=O)N4CCCCC4)cnc32)cc1 [MF-DH-306] |
| 100 to 1000 nM | CCC(CC)n1cnc2cc(C(=O)N3CCCCC3)cnc21 [MF-DH-236] |
| < 100 nM | O=C(c1cnc2c(ccn2-c2ccc(CO)cc2)c1)N1CCCCC1 [MF-DH-307] |
| < 100 nM | N#Cc1ccc(-n2ccc3cc(C(=O)N4CCCCC4)cnc32)cc1 [MF-DH-298] |
| 100 to 1000 nM | COc1ccc(-c2c[nH]c3cc(C(=O)N4CCC(F)CC4)cnc23)cc1 [MF-DH-204] |
| < 100 nM | COc1ccc(-n2ccc3c(N)c(C(=O)N4CCCCC4)cnc32)cc1 [MF-DH-290, (4-amino-1-(4-methoxyphenyl)-1H-pyrrolo[2,3-b]pyridin-5-yl)(piperidin-1-yl)methanone] |
| < 100 nM | O=C(c1cnc2c(ccn2-c2ccncn2)c1)N1CCCCC1 [MF-PGDH-069] |
| < 100 nM | O=C(c1cnc2c(ccn2-c2ccc3[nH]ncc3c2)c1)N1CCCCC1 [MF-DH-319, (1-(1H-indazol-5-yl)-1H-pyrrolo[2,3-b]pyridin-5-yl)(piperidin-1-yl)methanone] |
| 100 to 1000 nM | COc1cccc(-n2nc(Cl)c3cc(C(=O)N4CCCCC4)ccc32)c1 [MF-DH-272] |
| ≥ 1000 nM | COc1ccccc1-c1cn(C)c2cc(C(=O)N3CCC(F)CC3)cnc12 [MF-DH-200, (4-fluoropiperidin-1-yl)(3-(2-methoxyphenyl)-1-methyl-1H-pyrrolo[3,2-b]pyridin-6-yl)methanone] |
| < 100 nM | N#Cc1cccc(-n2ccc3cc(C(=O)N4CCC(F)CC4)cnc32)c1 [MF-DH-344] |
| < 100 nM | O=C(c1cnc2c(-c3cccc(Cl)c3)cnn2c1)N1CCCCC1 [MF-PGDH-012, (3-(3-chlorophenyl)pyrazolo[1,5-a]pyrimidin-6-yl)(piperidin-1-yl)methanone] |
| < 100 nM | O=C(Nc1ccno1)c1ccc(-n2ccc3cc(C(=O)N4CCC(F)(F)CC4)cnc32)cn1 |
| < 100 nM | N#Cc1ccc(-n2cnc3cc(C(=O)N4CCC(F)(F)CC4)cnc32)cc1 [MF-DH-442] |
| < 100 nM | Cc1nc2cc(C(=O)N3CCCCC3)ccc2n1-c1cccc(Cl)c1 [MF-PGDH-091] |
| < 100 nM | NC[C@@H]1CN(c2ccc(-n3ccc4cc(C(=O)N5CCC(F)(F)CC5)cnc43)cn2)C(=O)O1 [MF-DH-478] |
| < 100 nM | NC(=O)c1ccc(-n2ccc3cc(C(=O)N4CCC(F)(F)CC4)cnc32)cc1 [MF-DH-394] |
| < 100 nM | CS(=O)(=O)c1ccc(-n2ccc3cc(C(=O)N4CCCCC4)cnc32)cc1 [MF-DH-310] |
| < 100 nM | Nc1ncc(-n2ccc3cc(C(=O)N4CCCCC4)cnc32)cc1Cl [MF-DH-393] |
